Test [1] addresses Trace amine-associated receptor 1 (Rattus norvegicus, UniProt Q923Y9). The experiment in a line: Nonspecific binding was defined as the amount of 3-[H]-(S)-4-[(ethyl-phenyl-amino)-methyl]-4,5-dihydro-oxazol-2-ylamine bound in the presence of 10 uM unlabeled ligand. All compounds were tested at a broad range of concentrations (10 pM to 10 uM) in duplicates. The test compounds (20 ul/well) were transferred into a 96 deep well plate (TreffLab), and 180 ul of HEPES-NaOH (20 mM, pH 7.4) containing MgCl2 (10 mM) and CaCl2 (2 mM) (binding buffer), 300 ul of the radioligand 3[H](S)-4-[(ethyl-phenyl-amino)-methyl]-4,5-dihydro-oxazol-2-ylamine at a concentration of 3.3Kd in nM. In kind it is cell membranes.

The target in test [2] is Trace amine-associated receptor 1 (Mus musculus, UniProt Q923Y8). Briefly: Radioligand Binding: The TAAR1 radioligand 3[H](S)-4-[(ethyl-phenyl-amino)-methyl]-4,5-dihydro-oxazol-2-ylamine (described in WO 2008/098857) was used at a concentration equal to the calculated Kd value, that was usually around 0.7 nM, resulting in the binding of approximately 0.5% of the radioligand and a specific binding representing approximately 70% of the total binding. Nonspecific binding was defined as the amount of 3[H](S)-4-[(ethyl-phenyl-amino)-methyl]-4,5-dihydro-oxazol-2-ylamine bound in the presence of 10 uM unlabeled ligand. All compounds were tested at a broad range of concentrations ([…]) in duplicates.
Trace amine-associated receptor 1 (Mus musculus, UniProt Q923Y8), sequence (Q923Y8 whole entry): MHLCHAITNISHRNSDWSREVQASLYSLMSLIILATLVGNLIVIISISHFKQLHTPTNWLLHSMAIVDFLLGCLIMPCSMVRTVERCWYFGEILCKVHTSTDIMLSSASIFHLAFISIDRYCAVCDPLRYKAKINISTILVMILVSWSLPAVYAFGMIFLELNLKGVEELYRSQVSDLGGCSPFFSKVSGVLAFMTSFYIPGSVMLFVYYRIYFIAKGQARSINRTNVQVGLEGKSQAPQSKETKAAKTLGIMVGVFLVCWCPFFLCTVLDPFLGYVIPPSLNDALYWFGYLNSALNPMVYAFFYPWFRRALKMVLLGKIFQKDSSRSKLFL

Trace amine-associated receptor 1 (Rattus norvegicus, UniProt Q923Y9), sequence (Q923Y9 whole entry): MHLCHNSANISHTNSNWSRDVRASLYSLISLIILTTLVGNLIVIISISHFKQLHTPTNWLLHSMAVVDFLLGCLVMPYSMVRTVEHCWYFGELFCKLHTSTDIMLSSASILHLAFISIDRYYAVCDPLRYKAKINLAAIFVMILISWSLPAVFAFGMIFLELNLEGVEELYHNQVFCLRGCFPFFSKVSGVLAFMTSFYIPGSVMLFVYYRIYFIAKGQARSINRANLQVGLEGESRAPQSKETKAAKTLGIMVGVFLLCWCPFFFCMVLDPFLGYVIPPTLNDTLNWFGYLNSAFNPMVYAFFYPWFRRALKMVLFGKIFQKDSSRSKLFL

By Ki is commonly meant a dissociation constant, usually derived from enzyme kinetics or from competition with a known ligand. For `COc1cccc(-c2cc(C(=O)Nc3ccc([C@H]4CNCCO4)cc3)n(C)n2)c1`, the Ki in test [1] was 8.8 nM; in test [2], 6.4 nM.
